Test results reported in ChEMBL document CHEMBL1201862, “PubChem BioAssay data set” (2004).
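96-well plates; 48 h exposure; 5 concentrations. Endpoints by linear interpolation between flanking doses. Not reached: highest tested concentration assigned. Here, GI50 denotes the concentration required for 50% inhibition of growth.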 Activity calls are given as the source filed them. No stated cut-off is given here; in the data, active = GI50 up to about 1.1 µM and inactive = higher.

Key:
Test in all cases: DTP human tumour cell line panel, 48 h
786-0 = system: 786-0
HCC 2998 = system: HCC 2998
HT-29 = system: HT-29
KM12 = system: KM12
MOLT-4 = system: MOLT-4
Malme-3M = system: Malme-3M
NCI-H23 = system: NCI-H23
NCI-H522 = system: NCI-H522
OVCAR-3 = system: OVCAR-3
OVCAR-4 = system: OVCAR-4
SF-268 = system: SF-268
SF-539 = system: SF-539
SNB-19 = system: SNB-19
SNB-75 = system: SNB-75
UACC-62 = system: UACC-62
RXF 393 = system: RXF 393
TK-10 = system: TK-10

SMILES | GI50 (786-0) | GI50 (HCC 2998) | GI50 (HT-29) | GI50 (KM12) | GI50 (MOLT-4) | GI50 (Malme-3M) | GI50 (NCI-H23) | GI50 (NCI-H522) | GI50 (OVCAR-3) | GI50 (OVCAR-4) | GI50 (SF-268) | GI50 (SF-539) | GI50 (SNB-19) | GI50 (SNB-75) | GI50 (UACC-62) | GI50 (RXF 393) | GI50 (TK-10)
CC1=C(c2nc3ccccc3s2)C(=O)OC1(C)C | > 100 µM (inactive) | > 100 µM (inactive) | > 100 µM (inactive) | > 100 µM (inactive) | > 100 µM (inactive) | > 100 µM (inactive) | > 100 µM (inactive) | > 100 µM (inactive) | > 100 µM (inactive) | > 100 µM (inactive) | > 100 µM (inactive) | > 100 µM (inactive) | > 100 µM (inactive) | 86.5 µM (inactive) | > 100 µM (inactive) | – | –
O=[N+]([O-])c1ccc2nc(/C(=N/Nc3ccccc3)C(O)c3ccc(C(O)/C(=N\Nc4ccccc4)c4nc5ccc([N+](=O)[O-])cc5nc4O)cc3)cnc2c1 (centres undefined) | > 100 µM (inactive) | 29.1 µM (inactive) | > 100 µM (inactive) | 37.1 µM (inactive) | 75.3 µM (inactive) | > 100 µM (inactive) | > 100 µM (inactive) | 5.64 µM (inactive) | > 100 µM (inactive) | > 100 µM (inactive) | > 100 µM (inactive) | 55.1 µM (inactive) | > 100 µM (inactive) | – | 36 µM (inactive) | > 100 µM (inactive) | > 100 µM (inactive)
CC1(C)C(=O)C(=Cc2ccco2)C1=O | > 100 µM (inactive) | > 100 µM (inactive) | > 100 µM (inactive) | > 100 µM (inactive) | > 100 µM (inactive) | > 100 µM (inactive) | > 100 µM (inactive) | > 100 µM (inactive) | – | > 100 µM (inactive) | > 100 µM (inactive) | > 100 µM (inactive) | – | > 100 µM (inactive) | > 100 µM (inactive) | – | > 100 µM (inactive)
O=C(c1ccccc1)C1(Br)S(=O)(=O)OCCOS1(=O)=O | > 100 µM (inactive) | > 100 µM (inactive) | > 100 µM (inactive) | – | > 100 µM (inactive) | > 100 µM (inactive) | > 100 µM (inactive) | > 100 µM (inactive) | > 100 µM (inactive) | > 100 µM (inactive) | > 100 µM (inactive) | > 100 µM (inactive) | > 100 µM (inactive) | > 100 µM (inactive) | > 100 µM (inactive) | > 100 µM (inactive) | > 100 µM (inactive)
CN(C)C(=S)/N=c1\ss/c(=N\c2ccccc2)n1-c1ccccc1 | 16.1 µM (inactive) | 18.7 µM (inactive) | 0.154 µM (active) | – | 30 µM (inactive) | 21.3 µM (inactive) | 25.8 µM (inactive) | 1.21 µM (inactive) | 13.7 µM (inactive) | 0.275 µM (active) | 21.6 µM (inactive) | 16.3 µM (inactive) | – | 14.8 µM (inactive) | – | 16.3 µM (inactive) | 25.8 µM (inactive)
OC1OCC(COc2cc(Cl)c(Cl)cc2Cl)OC1O (centres undefined) | 77.1 µM (inactive) | 30.4 µM (inactive) | 65.8 µM (inactive) | 35.6 µM (inactive) | 32.2 µM (inactive) | 61.2 µM (inactive) | 59.2 µM (inactive) | 23.6 µM (inactive) | 25.5 µM (inactive) | 31.8 µM (inactive) | 68.2 µM (inactive) | 39.4 µM (inactive) | 33 µM (inactive) | 26.2 µM (inactive) | 33 µM (inactive) | – | > 100 µM (inactive)
COc1ccc(N2C(=O)C3CC(c4ccc(Br)cc4)c4c([nH]c5ccccc45)C3C2=O)cc1 (centres undefined) | 2.2 µM (inactive) | – | 13.2 µM (inactive) | 13.1 µM (inactive) | 10.8 µM (inactive) | 14.8 µM (inactive) | 11.4 µM (inactive) | – | – | 3.25 µM (inactive) | 6.78 µM (inactive) | 3.52 µM (inactive) | 3.43 µM (inactive) | 9.12 µM (inactive) | 16.1 µM (inactive) | – | 7.1 µM (inactive)
CC1CC[C@]2(C(=O)O)CCC3(C)C(=CCC4[C@@]5(C)CC[C@H](OS(=O)(=O)c6ccccc6)C(C)(C)C5CC[C@]43C)[C@@H]2[C@H]1C (some centres undefined) | > 100 µM (inactive) | 63.8 µM (inactive) | > 100 µM (inactive) | > 100 µM (inactive) | 34.3 µM (inactive) | > 100 µM (inactive) | 52.7 µM (inactive) | 53.8 µM (inactive) | > 100 µM (inactive) | > 100 µM (inactive) | > 100 µM (inactive) | > 100 µM (inactive) | > 100 µM (inactive) | > 100 µM (inactive) | > 100 µM (inactive) | – | > 100 µM (inactive)
COc1ccc(/C=C\c2cc(OC)c(OC)c(OC)c2)cc1 | 0.000395 µM (active) | 0.0385 µM (active) | < 0.01 µM (active) | 0.000124 µM (active) | 0.000506 µM (active) | 0.00184 µM (active) | 0.000357 µM (active) | 0.000364 µM (active) | < 0.0001 µM (active) | – | 0.000766 µM (active) | 0.000389 µM (active) | 0.0013 µM (active) | 0.000237 µM (active) | < 0.0001 µM (active) | – | –
